Test results published in patent US20210330611A1, “THERAPY FOR NEUROLOGICAL DISEASES/DISORDERS” (priority 2020, published 2021).
Where a name gives a salt, the structure may show the parent alone. Read-outs that look alike come from different tables or passages of the source.

Experiments:
[1] = tested on: LPS-induced microglia activation; assay: Image-based assay of LPS-induced microglia activation (HTS and dose response); format: cell-based, rat; details: for inhibition at 10 µM: Rattus norvegicus, Microglia, read-out: LPS % inhibition
primary rat microglia [2] = tested on: primary rat microglia
primary rat microglia [3] = assay: Cell toxicity (dead cells, size <150 μm2) in coated fibrin (cFib) assay; details: primary microglia HTS;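 note: share of dead cells sized under 150 µm2 at 10 µM in fibrin-stimulated microglia HTS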
[4] = tested on: fibrin-induced microglia activation; assay: Image-based assay of fibrin-induced microglia activation (HTS and dose response); format: cell-based, rat; details: primary microglia HTS, fibrin stimulation; for inhibition at 10 µM: Rattus norvegicus, Microglia, read-out: Fibrin % inhibition
[5] = tested on: fibrin- and LPS-induced microglia activation; assay: cells; format: cell-based, rat
[6] = primary microglia HTS, LPS stimulation, compounds at 10 μM
[7] = fibrin assay, dead cells (size <150 μm2), compounds at 10 μM
[8] = classification by fibrin and LPS inhibition, HTS at 10 μM
[9] = fibrin assay, dead cells (size <150 μm2)
[10] = quadrant by fibrin and LPS inhibition, HTS at 10 μM
[11] = fibrin stimulation, cell size <150 μm2 as marker of toxicity
[12] = cell size >800 μm2 as marker of activation
[13] = classification by fibrin and LPS inhibition in HTS

SMILES | inhibition at 10 µM [1, 6] | LPS % cell toxicity (primary rat microglia [2]; rat) | inhibition at 10 µM ([4]; compounds at 10 μM) | Fibrin % cell toxicity (primary rat microglia [3]; [9]) | Quadrant (FIG. 5b) [5, 10] | Fibrin % cell toxicity (primary rat microglia [3]; [11]) | Quadrant (FIG. 5b) [5, 13] | also measured
CCCCc1ncc(/C=C(\Cc2cccs2)C(=O)O)n1Cc1ccc(C(=O)O)cc1 [Eprosartan] | -8% | 0% | -29% |  |  |  |  | Fibrin % cell toxicity (primary rat microglia [3]; [7]): 1%; Quadrant (FIG. 5b) [5, 8]: Q4
CC(Cc1cccc(C(F)(F)F)c1)NCCOC(=O)c1ccccc1 (centres unmarked) [Benfluorex] | -3% | 0% | -26% | 1% | Q4 |  |  | 
Nc1ccc2cc3ccc(N)cc3nc2c1 [Proflavine] | 132% | 59% | 113% | 82% | Q2 |  |  | 
COc1ccc2c(c1)c(CC(=O)OCC(=O)O)c(C)n2C(=O)c1ccc(Cl)cc1 [Acemetacin] | 17% | 0% | -16% | 1% | Q4 |  |  | 
CC(=O)Nc1c(I)cc(I)c(C(=O)O)c1I [Acetrizoic acid] | 9% | 0% | 14% | 1% | Q4 |  |  | 
O=C(O)CCNC(=O)c1ccc(/N=N/c2ccc(O)c(C(=O)O)c2)cc1 [Balsalazide] | 11% | 0% | -2% | 0% | Q4 |  |  | 
CCN[C@@H](C)Cc1cccc(C(F)(F)F)c1 [Dexfenfluramine] | 5% | 0% | -15% |  |  |  |  | Fibrin % cell toxicity (primary rat microglia [3]; [7]): 1%; Quadrant (FIG. 5b) [5, 8]: Q4
Nc1ccncc1 [Dalfampridine] | 2% | 0% | 8% |  |  |  |  | Fibrin % cell toxicity (primary rat microglia [3]; [7]): 2%; Quadrant (FIG. 5b) [5, 8]: Q4
CCC(NC(C)C)C(O)c1ccc(O)c2[nH]c(=O)ccc12 (centres unmarked) [Procaterol] |  | 0% |  |  |  | 1% | Q4 | inhibition at 10 µM ([1]; 48 h): 21%; inhibition at 10 µM [4, 12]: 16%
O=C(NCCCN1CCOCC1)c1ccc(Cl)cc1 [Eprobemide] | 21% | 0% | -24% |  |  |  |  | Fibrin % cell toxicity (primary rat microglia [3]; [7]): 0%; Quadrant (FIG. 5b) [5, 8]: Q4
OCCN1CCN(CCCN2c3ccccc3Sc3ccc(Cl)cc32)CC1 [Perphenazine] |  | 1% |  |  |  | 1% | Q4 | inhibition at 10 µM ([1]; 48 h): 23%; inhibition at 10 µM [4, 12]: 23%
OCc1ccccc1O [Salicyl Alcohol] |  | 0% |  |  |  | 1% | Q4 | inhibition at 10 µM ([1]; 48 h): 19%; inhibition at 10 µM [4, 12]: -5%
CCCC(C(=O)OCCN(CC)CC)(c1ccccc1)c1ccccc1.Cl |  |  |  |  |  | 0% | Q4 | LPS % inhibition [1]: 5%; LPS % cell toxicity (primary rat microglia [2]): 0%; Fibrin % inhibition [4, 12]: −10%
C=C1/C(=C\C=C2/CCC[C@]3(C)[C@@H]([C@H](C)CCCC(C)C)CC[C@@H]23)C[C@@H](O)C[C@@H]1O [Alfacalcidol] | 4% | 0% | -26% | 1% | Q4 |  |  | 
CCCCNc1ccc(C(=O)OCCOCCOCCOCCOCCOCCOCCOCCOCCOC)cc1 [Benzonatate] | 12% | 0% | 0% | 1% | Q4 |  |  | 
FC(F)(Cl)C(F)(F)Cl [Cryoflurane] |  |  |  |  |  |  |  | LPS % inhibition [1, 6]: 12%; LPS % cell toxicity (primary rat microglia [2]): 0%; Fibrin % cell toxicity (primary rat microglia [3]; [7]): 1%; Fibrin % inhibition ([4]; compounds at 10 μM): −4%; Quadrant (FIG. 5b) [5, 8]: Q4

SMILES | inhibition at 10 µM [1, 6] | LPS % cell toxicity (primary rat microglia [2]; rat) | inhibition at 10 µM ([4]; compounds at 10 μM) | Fibrin % cell toxicity (primary rat microglia [3]; [9]) | Quadrant (FIG. 5b) [5, 10] | Fibrin % cell toxicity (primary rat microglia [3]; [11]) | Quadrant (FIG. 5b) [5, 13] | also measured
C[C@H](N[C@@H](CCc1ccccc1)C(=O)O)C(=O)N1Cc2ccccc2C[C@H]1C(=O)O [Quinaprilat] |  | 0% |  |  |  | 1% | Q4 | inhibition at 10 µM ([1]; 48 h): 5%; inhibition at 10 µM [4, 12]: -5%
O=C(O)CCC(=O)c1ccc(-c2ccccc2)cc1 [Fenbufen] | 25% | 0% | 3% |  |  |  |  | Fibrin % cell toxicity (primary rat microglia [3]; [7]): 0%; Quadrant (FIG. 5b) [5, 8]: Q4
Nc1ccc(C(=O)O)cc1 [4-Aminobenzoic Acid] | 13% | 1% | -31% | 1% | Q4 |  |  | 
Cc1oc(=O)oc1CN1CCN(c2cc3c(cc2F)c(=O)c(C(=O)O)c2n3C(C)S2)CC1 (centres unmarked) [Prulifloxacin] |  | 0% |  |  |  | 1% | Q4 | inhibition at 10 µM ([1]; 48 h): 16%; inhibition at 10 µM [4, 12]: 7%
CCC1(c2ccccc2)C(=O)NC(=O)NC1=O [Phenobarbital] |  | 0% |  |  |  | 0% | Q4 | inhibition at 10 µM ([1]; 48 h): -7%; inhibition at 10 µM [4, 12]: -22%
COC(=O)/C=C/C(=O)OC [Dimethyl Fumarate] | 16% | 0% | 4% |  |  |  |  | Fibrin % cell toxicity (primary rat microglia [3]; [7]): 0%; Quadrant (FIG. 5b) [5, 8]: Q4
NC(=O)C[S@@+]([O-])C(c1ccccc1)c1ccccc1 [Armodafinil] | 19% | 1% | -10% | 0% | Q4 |  |  | 
C[C@H]1c2cccc(O)c2C(=O)C2=C(O)[C@]3(O)C(=O)C(C(N)=O)=C(O)[C@@H](N(C)C)[C@@H]3[C@@H](O)[C@@H]21 [Doxycycline] | 18% | 0% | -19% |  |  |  |  | Fibrin % cell toxicity (primary rat microglia [3]; [7]): 0%; Quadrant (FIG. 5b) [5, 8]: Q4
CC(=O)NCCCCCC(=O)O [Acexamic Acid] | 13% | 0% | -25% | 1% | Q4 |  |  | 
CC[C@@H]1C(=O)OC[C@@H]1Cc1cncn1C [Pilocarpine] |  | 0% |  |  |  | 1% | Q4 | inhibition at 10 µM ([1]; 48 h): 14%; inhibition at 10 µM [4, 12]: -2%
O=C(O)CN(CCN(CC(=O)O)CC(=O)O)CCN(CC(=O)O)CC(=O)O |  |  |  |  |  | 0% | Q4 | LPS % inhibition [1]: −2%; LPS % cell toxicity (primary rat microglia [2]): 0%; Fibrin % inhibition [4, 12]: 11%
CC(=O)N[C@@H](CC(C)C)C(=O)O [Acetyl-l-leucine] | 45% | 3% | -10% | 5% | Q4 |  |  | 
CN(C)CC[C@@H](c1ccc(Br)cc1)c1ccccn1 |  |  |  |  |  |  |  | LPS % inhibition [1, 6]: 10%; LPS % cell toxicity (primary rat microglia [2]): 0%; Fibrin % cell toxicity (primary rat microglia [3]; [7]): 0%; Fibrin % inhibition ([4]; compounds at 10 μM): 0%; Quadrant (FIG. 5b) [5, 8]: Q4
CN1C(=O)CC(c2ccccc2)C1=O (centres unmarked) [Phensuximide] |  | 0% |  |  |  | 1% | Q4 | inhibition at 10 µM ([1]; 48 h): 4%; inhibition at 10 µM [4, 12]: -7%
CCN1CCC[C@H]1CNC(=O)c1c(OC)ccc(Br)c1OC [Remoxipride] |  | 0% |  |  |  | 1% | Q4 | inhibition at 10 µM ([1]; 48 h): 3%; inhibition at 10 µM [4, 12]: -14%
